Results on 8 compounds are retold here after patent US8710050B2, “Di and tri- substituted oxathiazine derivatives, method for the production, method for the production thereof, use thereof as medicine and drug containing said derivatives and use thereof” (Sanofi, priority 2011, dated 2014).

Sequence of human 11β-HSD1 microsome fraction (P28845 whole entry): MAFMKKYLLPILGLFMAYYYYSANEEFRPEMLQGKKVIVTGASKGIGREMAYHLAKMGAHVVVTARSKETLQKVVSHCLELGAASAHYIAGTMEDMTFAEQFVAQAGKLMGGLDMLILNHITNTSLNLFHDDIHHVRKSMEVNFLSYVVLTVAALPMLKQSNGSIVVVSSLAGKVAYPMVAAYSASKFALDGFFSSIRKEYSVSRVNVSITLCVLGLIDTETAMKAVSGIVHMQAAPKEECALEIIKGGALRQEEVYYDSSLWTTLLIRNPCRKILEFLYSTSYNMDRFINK

In the test the target is human 11β-HSD1 microsome fraction (Homo sapiens, UniProt P28845). The test is described as follows: Enzymatic 11beta-HSD1 test (SPA-based detection). The test is classed as biochemical. The conditions noted are these: [1,2-3H]-cortisone substrate, 0.25 mM NADPH, 37° C., 1 hour; read-out: IC50 (nM), Biological activity in nanomolar. Here is the method:
Enzymatic 11beta-HSD1 Test:
To measure the activity of the compounds, an SPA-based detection method (Solly et al. 2005) was employed. First of all, 20 μl of the human 11β-HSD1 microsome fraction (0.2 μg of protein), prepared in 50 mM HEPES, 0.1% BSA (w/v), were applied to a plate with 384 wells. The test compounds (0.09 μl) were applied to the assay plate in 100% DMSO. The reaction was started by addition of 20 μl of [1,2-^3H]-cortisone (0.1 μCi/[…]) in assay buffer comprising 25 mM HEPES, 100 mM KCl, 5 mM NaCl, 2 mM MgCl2 and 0.25 mM NADPH. The plate was agitated at 37° C. for 1 hour. At the same time, a stop solution comprising 20 mg/ml SPA-PVT beads, 1.6 mg/ml monoclonal cortisol antibody and 0.01 mM SSR110887 (inhibitor from the Biovitrium patent) in 50 mM HEPES, 1 M NaCl and 1 M KCl was stirred at room temperature. To stop the reaction, 25 μl of the stop solution were added to each well. The plate was agitated gently at room temperature for 1 further hour and then centrifuged at 500 gav for 1 min, in order that the SPA beads could settle out. The plate was then read in a Wallac-1450-Microbeta unit with a standard SPA program (counting time 1 min/well). The comparative compound was glycyrrhetinic acid.
Protein and radioactive substrate were dispensed with a Biomek FX unit (Beckman Coulter) for handling liquids. The test compounds were added with a Cybi-Well equipped with a 90 nl pin tool (CyBio).
Lit.: Solly S, Mundt S S, Zokian H J, Juy-Fang Ding G, Hermanowski-Vosatka A, Strulovici B and Zheng W. High-throughput screening of 11β-Hydroxysteroid dehydrogenase type 1 in scintillation proximity format. Assay Drug Dev Technol 2005; 3:377-384.
Turning to `CC1C(C)(C)OC(NC2CCCCC2)=NS1(=O)=O` (centres unmarked) [Example 1, Cyclohexyl-(5,6,6-trimethyl-4,4-dioxo-5,6-dihydro-4H-4lambda6-[1,4,3]oxathiazin-2-yl) amine], the IC50 came to 139 nM.
The result for `O=S1(=O)CC2(CCC2)OC(NC2CCCCC2)=N1` [Example 2, Cyclohexyl-(8,8-dioxo-5-oxa-8lambda6-thia-7-azaspiro[3.5]non-6-en-6-yl)amine] reads 399 nM; that for `O=S1(=O)CC2(CCCC2)OC(NC2CCCCC2)=N1` [Example 3, Cyclohexyl-(9,9-dioxo-6-oxa-9lambda6-thia-8-azaspiro[4.5]dec-7-en-7-yl)amine], 308 nM.
To `O=S1(=O)CC2(CCCCC2)OC(NC2CCCCC2)=N1` [Example 4, Cyclohexyl-(4,4-dioxo-1-oxa-4lambda6-thia-3-azaspiro[5.5]undec-2-en-2-yl)amine] belongs 300 nM; to `CC1(C)CS(=O)(=O)N=C(N[C@@H](CCO)c2ccccc2)O1` [Example 5, (S)-3-(6,6-Dlmethyl-4,4-dioxo-5,6-dihydro-4H-4lambda6-[1,4,3]oxathiazin-2-ylamino)-3 phenylpropan-1-ol], 307 nM; to `O=S1(=O)CC2(CCC2)OC(N[C@@H](CCO)c2ccccc2)=N1` [Example 6, (S)-3-(8,8-Dioxo-5-oxa-8lambda6-thia-7-azaspiro[3.5]non-6-en-6-ylamino)-3-phenyl-propan-1-ol], 128 nM.
The result for `O=S1(=O)CC2(CCCC2)OC(N[C@@H](CCO)c2ccccc2)=N1` [Example 7, (S)-3-(9,9-Dioxo-6-oxa-9lambda6-thia-8-aza-spiro[4.5]dec-7-en-7-ylamino)-3-phenyl-propan-1-ol] reads 113 nM; that for `O=S1(=O)CC2(CCCCC2)OC(N[C@@H](CCO)c2ccccc2)=N1` [Example 8, (S)-3-(4,4-Dioxo-1-oxa-4lambda6-thia-3-aza-spiro[5.5]undec-2-en-2-ylamino)-3-phenyl-propan-1-ol], 66 nM.
